In US8658638B2, “Mineralocorticoid receptor antagonist and methods of use” (priority 2009, dated 2014):

Tests used:
[1] = biological target: T1, human mineralocorticoid receptor (MR) (Homo sapiens, UniProt P08235); assay: Nuclear hormone receptor panel screen (luciferase reporter, HEK293), MR; assay type: cell-based
T1 construct: expressed in transfected cells; host or cells: HEK293
T1 sequence (P08235 1-984): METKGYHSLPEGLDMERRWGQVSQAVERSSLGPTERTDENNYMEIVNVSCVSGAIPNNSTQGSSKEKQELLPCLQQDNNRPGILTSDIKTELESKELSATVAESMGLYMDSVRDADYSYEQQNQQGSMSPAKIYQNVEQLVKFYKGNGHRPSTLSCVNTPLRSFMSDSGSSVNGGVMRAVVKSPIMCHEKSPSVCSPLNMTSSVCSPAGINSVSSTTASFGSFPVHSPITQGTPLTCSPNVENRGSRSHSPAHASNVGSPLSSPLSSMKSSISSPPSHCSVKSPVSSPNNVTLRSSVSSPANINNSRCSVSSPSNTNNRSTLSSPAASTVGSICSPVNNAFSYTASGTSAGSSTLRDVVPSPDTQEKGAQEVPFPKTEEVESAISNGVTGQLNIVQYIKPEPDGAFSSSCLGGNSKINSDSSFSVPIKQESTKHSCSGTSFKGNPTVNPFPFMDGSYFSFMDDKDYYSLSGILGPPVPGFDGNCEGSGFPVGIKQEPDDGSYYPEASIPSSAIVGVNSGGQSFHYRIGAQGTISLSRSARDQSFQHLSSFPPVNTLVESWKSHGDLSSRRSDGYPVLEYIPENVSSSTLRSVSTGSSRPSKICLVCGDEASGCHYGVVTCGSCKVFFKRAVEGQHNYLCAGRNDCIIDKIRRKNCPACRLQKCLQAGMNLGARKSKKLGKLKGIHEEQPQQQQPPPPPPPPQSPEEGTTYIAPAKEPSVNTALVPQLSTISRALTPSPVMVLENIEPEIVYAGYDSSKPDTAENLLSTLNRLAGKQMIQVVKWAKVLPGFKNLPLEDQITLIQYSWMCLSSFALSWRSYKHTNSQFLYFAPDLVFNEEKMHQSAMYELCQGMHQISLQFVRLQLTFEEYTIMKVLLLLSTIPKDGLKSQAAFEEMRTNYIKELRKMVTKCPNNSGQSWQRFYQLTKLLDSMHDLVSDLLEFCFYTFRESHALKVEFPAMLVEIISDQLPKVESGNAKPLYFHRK
Description: (§1) Aldosterone exerts it physiological effects through interaction with the mineralocorticoid receptor. Following cytoplasmic binding of aldosterone to MR, the ligand receptor complex translocates to the cell nucleus where it binds to hormone response elements on DNA to initiate expression of target genes. […] The solvents, reagents, and ligands employed in the functional assay are readily available from commercial sources, or can be prepared by one of ordinary skill in the art.
(§2) Human embryonic kidney HEK293 cells are transfected with steroid hormone receptor and reporter gene plasmids using a suitable transfection reagent such as Fugene™. […] After 24 hours incubation with test compounds, cells are lysed and luciferase activity is determined using standard techniques.
(§3) Data are fitted to a four parameter-fit logistic curve to determine EC50 values. […] IC50 values are determined similarly using antagonist mode assay data. In the antagonist mode, percent inhibitions are determined by comparing test compound activity in the presence of low concentration of agonist (0.08 nM aldosterone for MR, 0.25 nM dexamethasone for GR, 0.66 nM of methyltrienolone for AR, and 0.08 nM of promegestone for PR) to the response produced by the same low concentration of agonist in the absence of test compound.

[2] = biological target: T2, human glucocorticoid receptor (GR) (Homo sapiens, UniProt P04150); assay: Nuclear hormone receptor panel screen (luciferase reporter, HEK293), GR; assay type: cell-based
T2 construct: expressed in transfected cells; host or cells: HEK293
T2 sequence (P04150 1-777): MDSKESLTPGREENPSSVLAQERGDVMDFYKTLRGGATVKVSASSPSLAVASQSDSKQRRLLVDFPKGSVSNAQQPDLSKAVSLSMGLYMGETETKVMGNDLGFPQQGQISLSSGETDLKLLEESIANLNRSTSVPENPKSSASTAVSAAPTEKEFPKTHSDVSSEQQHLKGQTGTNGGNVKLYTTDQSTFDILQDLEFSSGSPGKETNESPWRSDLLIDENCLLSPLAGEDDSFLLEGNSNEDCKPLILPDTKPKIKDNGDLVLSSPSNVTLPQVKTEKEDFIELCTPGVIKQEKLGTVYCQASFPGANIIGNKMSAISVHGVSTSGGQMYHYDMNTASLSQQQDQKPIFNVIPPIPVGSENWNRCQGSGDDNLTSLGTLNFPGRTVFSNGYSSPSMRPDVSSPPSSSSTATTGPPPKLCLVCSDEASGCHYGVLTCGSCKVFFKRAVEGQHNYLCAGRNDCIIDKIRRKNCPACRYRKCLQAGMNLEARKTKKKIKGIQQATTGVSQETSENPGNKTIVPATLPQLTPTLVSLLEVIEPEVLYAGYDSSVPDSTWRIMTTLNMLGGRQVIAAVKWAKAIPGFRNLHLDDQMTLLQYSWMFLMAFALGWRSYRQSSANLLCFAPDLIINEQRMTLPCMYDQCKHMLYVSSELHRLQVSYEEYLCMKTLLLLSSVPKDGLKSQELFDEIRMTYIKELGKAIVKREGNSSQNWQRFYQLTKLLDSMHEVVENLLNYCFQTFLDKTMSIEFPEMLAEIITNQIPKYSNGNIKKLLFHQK
Description: as §1, §2, §3

EC50 ([1]; agonist mode): > 10 µM | IC50 ([1]; antagonist mode, 0.08 nM aldosterone): ~0.021 µM | EC50 ([2]; agonist mode): > 10 µM | IC50 ([2]; antagonist mode, 0.25 nM dexamethasone): > 10 µM
SMILES: O=c1[nH]c2cc(/C=C3\c4ccccc4COc4cc(F)ccc43)ccc2n1[C@@H]1C[C@@H]2COCCN2C1 [Compound (I), 5-((E)-(3-fluorodibenzo[b,e]oxepin-11(6H)-ylidene)methyl)-1-((7R,8aR)-hexahydro-1H-pyrrolo[2,1-c][1,4]oxazin-7-yl)-1H-benzo[d]imidazol-2(3H)-one]
